The values that follow are results of earlier work, collected in patent publication US20250049023A1, “FUNGICIDAL COMPOSITIONS” (SYNGENTA CROP PROTECTION AG, priority 2021, published 2025).

The data set has as its system Mycosphaerella graminicola (Septoria tritici). Particulars: as disclosed in prior filings.

For the compound `COc1ccnc(C(=O)N[C@@H](C)C(=O)O[C@@H](C)C(c2ccc(F)cc2)c2ccc(F)cc2)c1OC(C)=O` [Florylpicoxamid, (1S)-2,2-bis(4-fluorophenyl)-1-methylethyl N-{[3-(acetyloxy)-4-methoxy-2-pyridyl]carbonyl}-L-alaninate], the “control of wheat leaf blotch disease (in words)” value was “particularly effective”.
